The source of these data is patent publication US11661413B2, “Pyrazole compounds or salts thereof, preparation method therefor, herbicidal composition and use thereof” (priority 2015, dated 2023).

For one test, the system named is Arrowhead. In words: weed control effect in transplanted rice field (pot, water application). It is filed as in vivo, Sagittaria trifolia. The conditions noted are these: 500 g a.i./ha, treated at primary leaf stage, 14 days after treatment, naked eye, weed resistant to pyrazosulfuron-ethyl. The protocol: (§1) Rice field soil was loaded into a 1/1,000,000 ha pot. The seeds of Echinochloa, Scirpus juncoides, Bidens tripartite and Sagittaria trifolia were sowed and gently covered with soil, then left to stand still in greenhouse in the state of 0.5-1 cm of water storage. The tuber of Sagittaria trifolia was planted in the next day or 2 days later. It was kept at 3-4 cm of water storage thereafter. The weeds were treated by dripping the WP or SC water diluents prepared according to the common preparation method of the compounds of the present invention with pipette homogeneously to achieve specified effective amount when Echinochloa, Scirpus juncoides and Bidens tripartite reached 0.5 leaf stage and Sagittaria trifolia reached the time point of primary leaf stage.
(§2) The fertility condition of Echinochloa, Scirpus juncoides, Bidens tripartite and Sagittaria trifolia 14 days after the treatment of the compound of the invention and the fertility condition of rice 21 days after the treatment of the compound of the invention respectively with the naked eye.
(§3) Note: The seeds of barnyard grass, rushlike bulrush, arrowhead and beggartick are collected from Heilongjing Province of China. Tests indicate that the weeds are resistant to common application rate of pyrazosulfuron-ethyl.

For test [1], the system named is Barnyard grass. The description is as above. It is filed as in vivo, Echinochloa. Conditions: 500 g a.i./ha, treated at 0.5 leaf stage, 14 days after treatment, naked eye, weed resistant to pyrazosulfuron-ethyl. The protocol:
as §1, §2, §3

The subject of a further test is rushlike bulrush. The test is described as above. It is filed as in vivo, Scirpus juncoides. The conditions noted are these: 500 g a.i./ha, treated at 0.5 leaf stage, 14 days after treatment, naked eye, weed resistant to pyrazosulfuron-ethyl. The method, then: as §1, §2, §3
The test system of another test is Beggartick. The test is described as above. The test is classed as in vivo, Bidens tripartite. Conditions: 500 g a.i./ha, treated at 0.5 leaf stage, 14 days after treatment, naked eye, weed resistant to pyrazosulfuron-ethyl. The protocol: as §1, §2, §3
Test [2] has as its system Barnyard grass. In words: weed control effect in post emergence stage, greenhouse pot spray. It is filed as in vivo. The conditions noted are these: sprayed at 2-3 leaf stage, after 3 weeks. The method, then:
(§4) The activity level standard of harmful plant damage (i.e. growth inhibition rate) is as follows: The above described growth control rate is fresh weight control rate. Monocotyledonous and dicotyledonous weed seeds and main crop seeds (i.e. wheat, corn, rice, soybean, cotton, oilseed, millet and Sorghum) were put into a plastic pot loaded with soil. Then covered with 0.5-2 cm soil, the seeds were allowed to grow in good greenhouse environment. The test plants were treated at 2-3 leaf stage 2-3 weeks after sowing. […] The solution was sprayed to the plants with a sprayer. Then the plants were cultured for 3 weeks in the greenhouse.

A further test deals with Flixweed. The description is as above. It is filed as in vivo. The conditions noted are these: 16 g/mu, sprayed at 2-3 leaf stage, after 3 weeks. The method, then:
as §4

Consider `Cc1cnn(Cc2c(S(C)(=O)=O)ccc(C(=O)c3c(C)nn(C)c3O)c2Cl)c1` [Compound 1], for which the “weed control effect (activity level), Arrowhead” value (“weed control effect … Arrowhead” for short) in the test with Arrowhead is listed as 8 (above 80% growth inhibition rate). Further, the “weed control effect (activity level), Barnyard grass” value (from here on “weed control effect … Barnyard grass”) in the test with Barnyard grass [1] was 10; in the test on Barnyard grass [2] (1 g/mu), 4 (above 30% growth inhibition rate); in the test with Barnyard grass [2] (2 g/mu), 7 (above 70% growth inhibition rate); with Barnyard grass [2] (4 g/mu) it was 8 (above 80% growth inhibition rate); with Barnyard grass [2] (8 g/mu), 10; in the test on Barnyard grass [2] (16 g/mu), 10. Besides, the “weed control effect (activity level), rushlike bulrush” value in the test on rushlike bulrush turned out to be 10. The “weed control effect (activity level), Beggartick” value (“weed control effect … Beggartick” for short) with Beggartick is 9 (above 90% growth inhibition rate). The “weed control effect (activity level), Flixweed” value (shortened to “weed control effect … Flixweed”) in the test on Flixweed was found to be 10.
Turning to `Cc1cc(C)n(Cc2c(S(C)(=O)=O)ccc(C(=O)c3c(C)nn(C)c3O)c2Cl)n1` [Compound 4], in the test on Arrowhead, the “weed control effect … Arrowhead” value is 9 (above 90% growth inhibition rate). Also, the “weed control effect … Barnyard grass” value with Barnyard grass [1] was 10; in the test on Barnyard grass [2] (1 g/mu) it was 3 (above 30% growth inhibition rate); with Barnyard grass [2] (2 g/mu), 4 (above 30% growth inhibition rate); in the test with Barnyard grass [2] (4 g/mu), 5 (above 50% growth inhibition rate); in the test on Barnyard grass [2] (8 g/mu), 5 (above 50% growth inhibition rate); in the test with Barnyard grass [2] (16 g/mu), 7 (above 70% growth inhibition rate). In the test with rushlike bulrush, the “weed control effect (activity level), rushlike bulrush” value is 10. In the test on Beggartick, the “weed control effect … Beggartick” value is given as 9 (above 90% growth inhibition rate). In the test on Flixweed, the “weed control effect … Flixweed” value was determined as 10.
`CCc1nn(C)c(O)c1C(=O)c1ccc(S(C)(=O)=O)c(Cn2cc(Cl)cn2)c1Cl` [Compound 5]: the “weed control effect … Arrowhead” value with Arrowhead is reported as 10. Besides, the “weed control effect … Barnyard grass” value is reported as 10 in the test on Barnyard grass [1]; 2 (above 20% growth inhibition rate) in the test on Barnyard grass [2] (1 g/mu); 2 (above 20% growth inhibition rate) in the test with Barnyard grass [2] (2 g/mu); 4 (above 30% growth inhibition rate) in the test with Barnyard grass [2] (4 g/mu); 7 (above 70% growth inhibition rate) in the test with Barnyard grass [2] (8 g/mu); 8 (above 80% growth inhibition rate) in the test with Barnyard grass [2] (16 g/mu). Moreover, the “weed control effect (activity level), rushlike bulrush” value with rushlike bulrush was found to be 10. Moreover, in the test with Beggartick, the “weed control effect … Beggartick” value is given as 10. Moreover, the “weed control effect … Flixweed” value in the test on Flixweed is 10.
Take `Cc1cc(C)n(Cc2c(S(C)(=O)=O)ccc(C(=O)c3c(C4CC4)nn(C)c3O)c2Cl)n1` [Compound 13]: the “weed control effect … Arrowhead” value in the test with Arrowhead was 9 (above 90% growth inhibition rate). For the same molecule, the “weed control effect … Barnyard grass” value with Barnyard grass [1] is 10; in the test on Barnyard grass [2] (1 g/mu), 2 (above 20% growth inhibition rate); with Barnyard grass [2] (2 g/mu), 2 (above 20% growth inhibition rate); with Barnyard grass [2] (4 g/mu) it was 2 (above 20% growth inhibition rate); in the test on Barnyard grass [2] (8 g/mu) it was 5 (above 50% growth inhibition rate); with Barnyard grass [2] (16 g/mu), 7 (above 70% growth inhibition rate). Moreover, the “weed control effect (activity level), rushlike bulrush” value in the test with rushlike bulrush is on record as 9 (above 90% growth inhibition rate). The “weed control effect … Beggartick” value with Beggartick was 9 (above 90% growth inhibition rate). In the test on Flixweed, the “weed control effect … Flixweed” value came out at 10.
In the case of `CCS(=O)(=O)Oc1c(C(=O)c2ccc(S(C)(=O)=O)c(Cn3cc(C)cn3)c2Cl)c(C)nn1C` [Compound 32], the “weed control effect … Barnyard grass” value with Barnyard grass [2] (1 g/mu) was 5 (above 50% growth inhibition rate); in the test with Barnyard grass [2] (2 g/mu), 6 (above 60% growth inhibition rate); in the test with Barnyard grass [2] (4 g/mu) it was 5 (above 50% growth inhibition rate); with Barnyard grass [2] (8 g/mu), 7 (above 70% growth inhibition rate); with Barnyard grass [2] (16 g/mu), 8 (above 80% growth inhibition rate). In addition, the “weed control effect … Flixweed” value in the test on Flixweed is recorded as 10.
In the case of `Cc1cc(C)n(Cc2c(S(C)(=O)=O)ccc(C(=O)c3c(C)nn(C)c3OCC(=O)OC(C)(C)C)c2Cl)n1` [Compound 35], the “weed control effect … Arrowhead” value in the test on Arrowhead was 9 (above 90% growth inhibition rate). The “weed control effect … Barnyard grass” value is 10 with Barnyard grass [1]; 3 (above 30% growth inhibition rate) with Barnyard grass [2] (1 g/mu); 3 (above 30% growth inhibition rate) with Barnyard grass [2] (2 g/mu); 4 (above 30% growth inhibition rate) with Barnyard grass [2] (4 g/mu); 4 (above 30% growth inhibition rate) with Barnyard grass [2] (8 g/mu); 5 (above 50% growth inhibition rate) in the test with Barnyard grass [2] (16 g/mu). The “weed control effect (activity level), rushlike bulrush” value in the test with rushlike bulrush is recorded as 10. In addition, in the test with Beggartick, the “weed control effect … Beggartick” value was found to be 10. The “weed control effect … Flixweed” value in the test with Flixweed is on record as 10.
Take `CCOC(=O)Oc1c(C(=O)c2ccc(S(C)(=O)=O)c(Cn3nc(C)cc3C)c2Cl)c(C)nn1C` [Compound 36]: the “weed control effect … Barnyard grass” value is 2 (above 20% growth inhibition rate) in the test with Barnyard grass [2] (1 g/mu); 3 (above 30% growth inhibition rate) in the test on Barnyard grass [2] (2 g/mu); 4 (above 30% growth inhibition rate) in the test on Barnyard grass [2] (4 g/mu); 4 (above 30% growth inhibition rate) with Barnyard grass [2] (8 g/mu); 5 (above 50% growth inhibition rate) with Barnyard grass [2] (16 g/mu). Besides, the “weed control effect … Flixweed” value with Flixweed is given as 10.
With `CCOc1c(C(=O)c2ccc(S(C)(=O)=O)c(Cn3nc(C)cc3C)c2Cl)c(C)nn1C` [Compound 37], the “weed control effect … Barnyard grass” value is recorded as 0 in the test with Barnyard grass [2] (1 g/mu); 1 (above 1-10% growth inhibition rate) in the test with Barnyard grass [2] (2 g/mu); 1 (above 1-10% growth inhibition rate) with Barnyard grass [2] (4 g/mu); 2 (above 20% growth inhibition rate) in the test on Barnyard grass [2] (8 g/mu); 2 (above 20% growth inhibition rate) in the test on Barnyard grass [2] (16 g/mu). Also, the “weed control effect … Flixweed” value in the test on Flixweed is listed as 2 (above 20% growth inhibition rate).
On to `CCCCCOc1c(C(=O)c2ccc(S(C)(=O)=O)c(Cn3nc(C)cc3C)c2Cl)c(C)nn1C` [Compound 38], for which the “weed control effect … Barnyard grass” value in the test with Barnyard grass [2] (1 g/mu) is on record as 0; with Barnyard grass [2] (2 g/mu), 1 (above 1-10% growth inhibition rate); in the test with Barnyard grass [2] (4 g/mu) it was 1 (above 1-10% growth inhibition rate); in the test on Barnyard grass [2] (8 g/mu), 2 (above 20% growth inhibition rate); in the test with Barnyard grass [2] (16 g/mu), 2 (above 20% growth inhibition rate). Also, the “weed control effect … Flixweed” value with Flixweed is on record as 2 (above 20% growth inhibition rate).
As for `Cc1cc(C)n(Cc2c(S(C)(=O)=O)ccc(C(=O)c3c(C)nn(C)c3OC(=O)c3nc(Cl)ccc3Cl)c2Cl)n1` [Compound 40], the “weed control effect … Barnyard grass” value in the test on Barnyard grass [2] (1 g/mu) is given as 3 (above 30% growth inhibition rate); in the test on Barnyard grass [2] (2 g/mu), 5 (above 50% growth inhibition rate); with Barnyard grass [2] (4 g/mu), 5 (above 50% growth inhibition rate); in the test with Barnyard grass [2] (8 g/mu), 7 (above 70% growth inhibition rate); in the test with Barnyard grass [2] (16 g/mu), 8 (above 80% growth inhibition rate). The “weed control effect … Flixweed” value in the test with Flixweed stood at 10.
On to `Cc1nn(C)c(O)c1C(=O)c1ccc(S(C)(=O)=O)c(Cn2nc(C(F)(F)F)cc2C(F)(F)F)c1Cl` [Compound 41], for which the “weed control effect … Barnyard grass” value in the test with Barnyard grass [2] (1 g/mu) was 4 (above 30% growth inhibition rate); in the test on Barnyard grass [2] (2 g/mu), 5 (above 50% growth inhibition rate); in the test with Barnyard grass [2] (4 g/mu), 6 (above 60% growth inhibition rate); in the test on Barnyard grass [2] (8 g/mu) it was 7 (above 70% growth inhibition rate); in the test with Barnyard grass [2] (16 g/mu), 7 (above 70% growth inhibition rate). Further, the “weed control effect … Flixweed” value in the test with Flixweed turned out to be 10.
